Laboratory results as given in BigSolDB 2.1.

CN1COCN(Cc2cnc(Cl)s2)C1=N[N+](=O)[O-]
solubility (mole fraction)
Details	278.15 K	283.15 K	288.15 K	293.15 K	298.15 K	303.15 K	308.15 K	313.15 K	318.15 K	323.15 K
in 1,4-dioxane	–	–	0.00255	0.00328	0.00404	0.00523	0.00637	0.00792	0.00985	0.0123
in 2-ethoxyethanol	0.00319	0.00411	0.00523	0.00627	0.00722	0.00839	0.01	0.0117	0.0141	0.0168
in 2-methoxyethanol	0.00727	0.00895	0.011	0.013	0.0152	0.0185	0.0218	0.026	0.0311	0.0374
in DMAc	0.0679	0.074	0.0817	0.0902	0.0988	0.108	0.12	0.133	0.145	0.157
in DMSO	–	–	0.0689	0.0786	0.0902	0.103	0.117	0.134	0.152	0.172
in acetic acid	–	–	–	0.013	0.0172	0.0227	0.0292	0.0387	0.0547	0.07
in acetonitrile	0.00704	0.00827	0.0105	0.0125	0.0149	0.0183	0.0227	0.0278	0.0344	0.0422
in methanol	0.000628	0.000817	0.00111	0.00141	0.00169	0.00225	0.00294	0.00397	0.00486	0.0063
in propionic acid	0.000769	0.00113	0.00147	0.00185	0.00252	0.00329	0.00406	0.00562	0.00739	0.00939
